Experimental data taken from patent US20260242427A1 (priority 2024, published 2026).

Tests used:
[1] = target: T1, hArg-Cry1Ab fusion particles (human arginase I fused to the N-terminus of Cry1Ab) (Homo sapiens, UniProt P05089); experiment: Kinetic studies, immobilized hArg-Cry1Ab particles; type: biochemical; conditions: L-arginine 0-500 mM, 40° C., pH 8.0, 0.1 mM Mn^2+, based on concentration of hArg
T1 construct: His tag of pET28 (inferred from the NdeI forward primer only) (N); made in house; host or cells: E. coli BL21(DE3)
T1 sequence (P05089 other isoform, or with tags, fused parts or gaps): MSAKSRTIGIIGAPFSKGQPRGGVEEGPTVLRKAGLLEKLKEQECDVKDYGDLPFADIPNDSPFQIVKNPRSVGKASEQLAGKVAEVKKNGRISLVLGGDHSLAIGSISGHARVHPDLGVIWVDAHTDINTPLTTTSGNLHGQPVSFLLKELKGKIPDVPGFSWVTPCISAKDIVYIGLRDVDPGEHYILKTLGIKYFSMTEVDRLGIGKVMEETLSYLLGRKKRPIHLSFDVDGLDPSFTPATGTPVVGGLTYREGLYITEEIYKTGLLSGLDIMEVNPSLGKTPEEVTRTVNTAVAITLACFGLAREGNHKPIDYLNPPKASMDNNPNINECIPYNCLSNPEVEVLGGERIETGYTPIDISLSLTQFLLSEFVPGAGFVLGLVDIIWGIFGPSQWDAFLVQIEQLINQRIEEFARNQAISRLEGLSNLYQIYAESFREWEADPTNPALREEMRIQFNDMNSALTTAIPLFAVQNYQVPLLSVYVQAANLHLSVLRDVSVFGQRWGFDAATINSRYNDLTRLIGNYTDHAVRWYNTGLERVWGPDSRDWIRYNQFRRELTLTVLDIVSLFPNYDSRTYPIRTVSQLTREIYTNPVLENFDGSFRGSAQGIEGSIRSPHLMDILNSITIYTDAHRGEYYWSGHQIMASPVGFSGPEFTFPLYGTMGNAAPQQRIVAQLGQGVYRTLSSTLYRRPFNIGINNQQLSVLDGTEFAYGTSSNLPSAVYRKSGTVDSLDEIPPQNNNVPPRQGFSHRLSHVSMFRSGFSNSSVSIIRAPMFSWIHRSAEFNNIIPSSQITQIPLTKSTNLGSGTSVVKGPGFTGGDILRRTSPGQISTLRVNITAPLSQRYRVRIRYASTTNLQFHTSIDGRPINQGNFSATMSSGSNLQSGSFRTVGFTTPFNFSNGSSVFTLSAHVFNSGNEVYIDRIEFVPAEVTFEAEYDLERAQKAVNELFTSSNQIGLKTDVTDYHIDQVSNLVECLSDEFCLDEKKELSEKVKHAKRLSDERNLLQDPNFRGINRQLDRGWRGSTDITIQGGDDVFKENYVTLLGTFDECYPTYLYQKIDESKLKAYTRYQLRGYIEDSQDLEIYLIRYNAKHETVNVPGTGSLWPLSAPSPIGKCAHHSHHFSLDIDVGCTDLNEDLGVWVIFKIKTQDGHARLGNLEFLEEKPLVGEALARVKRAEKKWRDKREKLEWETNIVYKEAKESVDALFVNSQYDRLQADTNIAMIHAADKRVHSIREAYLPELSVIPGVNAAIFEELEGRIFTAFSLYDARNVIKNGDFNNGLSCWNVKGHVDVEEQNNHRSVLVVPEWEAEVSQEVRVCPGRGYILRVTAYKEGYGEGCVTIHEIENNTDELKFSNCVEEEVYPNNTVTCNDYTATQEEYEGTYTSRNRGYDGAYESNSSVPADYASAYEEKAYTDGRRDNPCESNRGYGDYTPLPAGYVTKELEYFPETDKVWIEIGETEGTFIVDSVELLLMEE

[2] = target: T2, human arginase I (hArg, Accession Number: NM_000045.4), free enzyme (Homo sapiens, UniProt P05089); type: biochemical; conditions: L-arginine 0-500 mM, 40° C., 50 mM HEPES pH 8.0, 0.1 mM Mn^2+
T2 construct: His tag with thrombin site of pET28 (inferred from the NdeI primer, the stop codon in the reverse primer and nickel purification); made in house; host or cells: E. coli BL21(DE3)
T2 sequence (P05089 whole entry): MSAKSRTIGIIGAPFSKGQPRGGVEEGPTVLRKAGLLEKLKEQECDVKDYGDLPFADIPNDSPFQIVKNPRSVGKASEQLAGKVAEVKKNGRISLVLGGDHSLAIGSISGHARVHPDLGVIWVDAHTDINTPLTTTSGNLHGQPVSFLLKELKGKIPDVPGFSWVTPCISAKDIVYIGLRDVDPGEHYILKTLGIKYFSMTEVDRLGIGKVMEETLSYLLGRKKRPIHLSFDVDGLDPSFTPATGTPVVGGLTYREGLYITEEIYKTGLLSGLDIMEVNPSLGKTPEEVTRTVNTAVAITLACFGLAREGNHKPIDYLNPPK
Description: All positive colonies were verified by DNA sequencing (BGI).
Expression and Purification of ODC and hArg Free Enzymes
(§1) All experiments were performed in triplicate.
as §1

[3] = target: T2, human arginase I (hArg, Accession Number: NM_000045.4), free enzyme; experiment: Effect of urea on the activity of hArg; type: biochemical; conditions: 0 to 1 M urea, 40° C., 6 h
Description: as §1, §1

[4] = target: T3, 3A-PEI crystals (polyethylenimine-modified Cry3Aa, Bacillus thuringiensis) (Bacillus thuringiensis subsp. tenebrionis, UniProt P0A379); experiment: NADH binding capacity of 3A-PEI crystals; conditions: NaPB 25 mM
T3 construct: made in house; host or cells: Bacillus thuringiensis BT407G
T3 sequence (P0A379 1-644): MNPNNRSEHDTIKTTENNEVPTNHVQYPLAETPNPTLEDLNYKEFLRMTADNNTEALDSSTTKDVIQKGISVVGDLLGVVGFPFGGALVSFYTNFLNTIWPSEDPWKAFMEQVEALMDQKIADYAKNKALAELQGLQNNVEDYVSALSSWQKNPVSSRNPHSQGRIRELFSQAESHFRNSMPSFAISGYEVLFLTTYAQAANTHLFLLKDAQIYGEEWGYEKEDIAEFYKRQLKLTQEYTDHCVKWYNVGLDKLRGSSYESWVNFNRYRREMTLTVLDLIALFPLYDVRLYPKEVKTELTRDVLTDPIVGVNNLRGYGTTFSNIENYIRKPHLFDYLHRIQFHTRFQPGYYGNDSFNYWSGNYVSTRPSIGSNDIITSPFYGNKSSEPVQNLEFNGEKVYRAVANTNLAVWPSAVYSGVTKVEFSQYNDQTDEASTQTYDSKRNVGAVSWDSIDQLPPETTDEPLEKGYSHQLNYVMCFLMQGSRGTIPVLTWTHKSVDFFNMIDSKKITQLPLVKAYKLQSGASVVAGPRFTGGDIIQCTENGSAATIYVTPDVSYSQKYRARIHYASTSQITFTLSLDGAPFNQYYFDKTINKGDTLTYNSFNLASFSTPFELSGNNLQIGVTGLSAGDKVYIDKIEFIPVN

[5] = target: T4, Pos3Aa crystals (positively charged variant of Cry3Aa, domain II surface residues mutated) (Bacillus thuringiensis, UniProt P0A379); experiment: NADH binding capacity of Pos3Aa crystals; conditions: 0.25 mM NADH, 10° C., 30 min, 340 nm
T4 construct: engineered Cry3Aa, domain II surface residues replaced by Lys/Arg; no PEI; crystals produced in Bacillus thuringiensis (usual host)
Description: Previous studies by our lab had generated a positively charged variant of Cry3Aa, Pos3Aa, by mutating multiple residues on the surface of domain II of Cry3Aa to lysines creating a positively charged surface.
To compare the binding capacity of 3A-PEI crystals with Cry3Aa and Pos3Aa crystals, the same experiment was conducted as the control.
Cry3Aa is a self-crystallization protein produced naturally by certain strains of Bt. Our group has used crystals and particles of Cry3Aa for entrapment of positively charged small peptides and proteins due to the presence of abundant negatively charged residues, aspartic acid (Asp) and glutamic acid (Glu) residues, on the exposed surface of its domain II, which forms the solvent channels (FIG. 1A). We have engineered a protein called Pos3Aa, derived from the replacement of all these residues in domain II of Cry3Aa with positively charged arginine (Arg) and lysine (Lys) residues, which provide positively charged channels within the crystals. We hypothesized that these crystals would be able to entrap negatively charged molecules, such as phosphorylated cofactors, ionically inside the channels. […] Each molecular mass unit of this polymer (43 kDa) has 3 to 3.6-fold higher protonated nitrogen than poly-Arg and poly-Lys (one positive charge per 157 and 129 molecular masses), respectively. […]

N=C(N)NCCC[C@H](N)C(=O)O [L-arginine]
kcat [1]: 59.7 ± 0.8 s⁻¹ | Km ([1]; read-out: appKm): 18.5 ± 0.3 mM | kcat [2]: 99.9 ± 1.7 s⁻¹ | Km ([2]; read-out: appKm): 20 ± 1.3 mM

NC(N)=O [urea]
effect of urea on activity [3]: unaffected

NC(=O)C1=CN([C@@H]2O[C@H](COP(=O)(O)OP(=O)(O)OC[C@H]3O[C@@H](n4cnc5c(N)ncnc54)[C@H](O)[C@@H]3O)[C@@H](O)[C@H]2O)C=CC1 [NADH, nicotinamide adenine dinucleotide]
NADH binding capacity ([4]; pH 6.0): 453.5 ± 2.8 µmol/g | NADH binding capacity ([4]; pH 7.0): 412 ± 4 µmol/g | NADH binding capacity ([4]; pH 8.0): 350.2 ± 3.6 µmol/g | NADH binding capacity [5]: 11.2 ± 0.7 µmol/g
